Where no end group is shown, it is not given here.
System: HeLa cells
Experiment: PI-positive counting of GFP-PH versus GFP only transfected cells by CLSM
Format: cell-based, human
Details: 15 μM HBD-3, confocal imaging over 30 min, five independent experiments
Experimental: Live imaging was performed on a Zeiss LSM-780 confocal microscope using a 63× oil immersion objective in a 37°C incubator with 5% CO2. Adherent HeLa cells were cultured overnight on coverslips while suspension U937 cells were immobilised onto 0.01% (w/v) poly-L-lysine-coated coverslips. Both cell types were prepared in serum-free RPMI 1640 medium containing 0.1% (w/v) BSA and 2 μg/mL PI. HBD-3 or BODIPY FL EDA-labeled HBD-3 was added directly to the imaging chamber to final concentration of 15 μM, via a capillary tube. In certain experiments, prior to imaging, cells were pre-stained with the membrane dye PKH67 as per manufacturer's instructions (Sigma-Aldrich) or transfected with expression vectors carrying GFP only or GFP-tagged Pleckstrin homology domain of phospholipase C-delta 1 (GFP-PH(PLCδ1)) (kindly provided by Christina Mitchell, Monash University, Australia), using Lipofectamine 3000 reagent (Invitrogen) as per manufacturer's instructions. For CLSM involving transfections, images were taken as 4×4 tiles over 30 min, and the resultant data for GFP and GFP-PH transfected cells were analysed by counting PI-positive cells.

Substance: human β-defensin 3 (GIINTLQKYYCRVRGGRCAVLSCLPKEEQIGKCSTRGRKCCRRKK; not fully specified; cysteine pairing not given here; UniProt P81534 23-67, looked up) [HBD-3, human β-defensin 3, cationic antimicrobial peptide, recombinantly expressed in P. pastoris]
- fold lower number of PI-positive cells in GFP-PH(PLCδ) versus GFP only-transfected cells: 2.5 fold

Source: publication PMC4811302, “Human β-defensin 3 contains an oncolytic motif that binds PI(4,5)P2 to mediate tumour cell permeabilisation” (Oncotarget, 2015)
